# Test results reported in patent publication US6096293A, “Antiplaque oral composition and method” (priority 1999, dated 2000).
# Columns and labels:
# bacteria [1] = experiment: Antimicrobial activity in general (comparison with thymol / triclosan, effect of substitution); assay type: cell-based
# A. viscosus [2] = experiment: Minimum Inhibitory Concentration (MIC), neat AA solutions in ethanol; assay type: cell-based; conditions: for MIC: neat solution in 98.5% ethanol
# Text: (§1) The smaller the MIC, the greater the antibacterial activity of the AA being tested. This MIC test is also described in U.S. Pat. No. 5,275,805 at column 11, lines 54-68, which description is herewith incorporated herein.
# S. mutans [3] = experiment: as above; assay type: cell-based; conditions: for MIC: neat solution in 98.5% ethanol
# Text: as §1
# S. sanguis [4] = experiment: as above; assay type: cell-based; conditions: for MIC: neat solution in 98.5% ethanol
# Text: as §1
# S. sanguis [5] = conditions: Evans 1977; cited from earlier work
# A. viscosus [6] = conditions: Evans 1977; cited from earlier work
# S. mutans [7] = conditions: Evans 1977; cited from earlier work
# A. naeslundii = conditions: Evans 1977; cited from earlier work
# bacteria [8] = conditions: background statement; cited from earlier work
# [9] = system: A. viscosus, A. naeslundii, S. mutans and S. sanguis; conditions: Evans 1977; cited from earlier work
# [10] = system: B. typhosus and Staph. aureus; conditions: v. B. typhosus and Staph. aureus; Suter 1941; cited from earlier work
Compound,MIC (A. viscosus [2]),MIC (S. mutans [3]),MIC (S. sanguis [4]),inhibition of in vitro growth or plaque formation [9],phenol coefficient [10],further results
"CC(C)(C)c1ccc(O)c(C(C)(C)C)c1 [2,4-di-t-butylphenol]",1.95 ppm,0.98 ppm,1.95 ppm,,,"activity relative to thymol (bacteria [1]; MIC test of Example 5, A. viscosus, S. sanguis, S. mutans): many times superior to thymol; activity relative to triclosan (A. viscosus [2]; MIC test of Example 5): somewhat less active than triclosan; activity relative to triclosan (S. mutans [3]; MIC test of Example 5): significantly superior to triclosan; activity relative to triclosan (S. sanguis [4]; MIC test of Example 5): somewhat less active than triclosan"
"O=C(Nc1ccc(Br)cc1)c1cc(Br)cc(Br)c1O [3,5,4'-tribromo-salicylanilide]",,,,,,effect on growth and plaque formation (S. sanguis [5]): effective against growth and plaque formation; effect on growth and plaque formation (A. viscosus [6]): effective against growth and plaque formation; effect on growth and plaque formation (S. mutans [7]): effective against growth and plaque formation; effect on growth and plaque formation (A. naeslundii): effective against growth and plaque formation
O=C(C(=O)c1cc(Br)ccc1O)c1cc(Br)ccc1O [Dibromsalicil],,,,,,effect on growth and plaque formation (A. viscosus [6]): effective against A. viscosus
"Cc1ccc(C(C)C)c(O)c1 [Thymol, 2-isopropyl-5-methylphenol]",15.60 ppm,31.25 ppm,15.60 ppm,did not inhibit in vitro growth or plaque formation,,antimicrobial activity relative to triclosan (background) (bacteria [8]): only a small fraction of the activity of triclosan
Oc1cc(Cl)ccc1Oc1ccc(Cl)cc1Cl [Triclosan],0.50 ppm,1.95 ppm,0.98 ppm,,,"activity compared to thymol (bacteria [1]; AA's of the Tables, ""10 to 100 or more times""): ~100 times"
CCC(C)c1ccccc1O (centres unmarked) [o-sec-butyl phenol],,,,,28,
CCC(C)c1ccc(O)cc1 (centres unmarked) [p-sec-butyl phenol],,,,,28,
O=S(=O)([O-])c1ccc(O)cc1.O=S(=O)([O-])c1ccc(O)cc1.[Zn+2] [zinc phenolsulfonate],,,,did not inhibit in vitro growth or plaque formation,,
phenylphenol,,,,did not inhibit in vitro growth or plaque formation,,
tert.butylphenol,,,,,about 20,
